target: T1, human PAD4 (Homo sapiens, UniProt Q9UM07); assay: In vitro PAD4 BAEE biochemical assay; settings: BAEE substrate 3 mM, 5 nM PAD4, 2 mM calcium chloride; geometric mean of multiple experiments
T1 construct: human PAD4 (NM_012387), A2-P663, was PCR amplified; His-SUMO (N, cleaved yes); made in house; host or cells: E. coli BL21(DE3)
In short: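 Assay was run at 25 °C using 3 mM BAEE and 5 nM human PAD4 after a 30 min compound preincubation; ammonia produced over 2 h was quantified by OPA-derived fluorescence. Full inhibition was defined by 50 µM BB-Cl-Amidine, and IC50 came from variable-slope nonlinear regression.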

T1 sequence (Q9UM07 2-663): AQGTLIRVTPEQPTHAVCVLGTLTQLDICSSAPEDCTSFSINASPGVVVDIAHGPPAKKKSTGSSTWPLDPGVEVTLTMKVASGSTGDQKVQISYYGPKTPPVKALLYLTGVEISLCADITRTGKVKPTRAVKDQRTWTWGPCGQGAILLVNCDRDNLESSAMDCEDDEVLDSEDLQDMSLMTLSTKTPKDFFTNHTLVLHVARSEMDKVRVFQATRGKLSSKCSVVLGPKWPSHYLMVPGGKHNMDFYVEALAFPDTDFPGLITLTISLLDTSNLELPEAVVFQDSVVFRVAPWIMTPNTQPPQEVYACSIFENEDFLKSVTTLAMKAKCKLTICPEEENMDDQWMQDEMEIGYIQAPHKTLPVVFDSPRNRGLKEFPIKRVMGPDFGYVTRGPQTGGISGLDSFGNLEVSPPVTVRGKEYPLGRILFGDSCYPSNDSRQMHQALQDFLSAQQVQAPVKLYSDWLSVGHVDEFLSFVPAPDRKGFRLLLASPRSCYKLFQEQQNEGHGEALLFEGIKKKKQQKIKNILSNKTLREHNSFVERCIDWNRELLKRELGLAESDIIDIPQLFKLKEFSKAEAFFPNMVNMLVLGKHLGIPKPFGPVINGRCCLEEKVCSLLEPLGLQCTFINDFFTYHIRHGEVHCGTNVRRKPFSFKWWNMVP

Question: How did the IC50 turn out when C[C@H]1NC(=O)c2ccnn2CCCCCn2c(-c3nc4cc(C(=O)N5C[C@H](N)[C@@H]6CC[C@H]5C6)cc(F)c4n3C3CC3)cc3ccc1nc32 [Example 912, (2~{R})-16-[5-[(1~{S},4~{R},5~ {R})-4-amino-2-azabicyclo [3.2.1]octane-2-carbonyl]-1-cyclopropyl-7-fluoro-benzimidazol-2-yl]-2-methyl-3,8,9,15,21-pentazatetracyclo [13.5.2.0^{5,9}.0^{18,22}] docosa-1(21),5,7,16,18(22),19-hexaen-4-one] was run?
Answer: 17 nM

Question: With C[C@H]1NC(=O)[C@@H]2C[C@H]2CCCCCn2c(-c3nc4cc(C(=O)N5C[C@H](N)[C@@H]6CC[C@H]5C6)ccc4n3C3CC3)cc3ccc1nc32 [Example 913, (2~{R},5~{R},7~{R})-14-[5-[(1~{S},4~{R},5~{R})-4-amino-2-azabicyclo[3.2.1]octane-2-carbonyl]-1-cyclopropyl-benzimidazol-2-yl]-2-methyl-3,13,19-triazatetracyclo [11.5.2.0^{5,7}.0^{16,20}] icosa-1(19),14,16(20),17-tetraen-4-one] as the compound, how does the IC50 read?
Answer: 22 nM

Question: How did the IC50 turn out when C[C@H]1NC(=O)[C@@H]2C[C@H]2CCCC(F)(F)Cn2c(-c3nc4cc(C(=O)N5C[C@H](N)[C@@H]6CC[C@H]5C6)ccc4n3C3CC3)cc3ccc1nc32 [Example 914, (2~{R},5~{R},7~{R})-14-[5-[(1~{S},4~{R},5~{R})-4-amino-2-azabicyclo[3.2.1]octane-2-carbonyl]-1-cyclopropyl-benzimidazol-2-yl]-11,11-difluoro-2-methyl-3,13,19-triazatetracyclo[11.5.2.0^ {5,7}.0^{16,20}]icosa-1(19), 14,16(20),17-tetraen-4-one] was run?
Answer: 16 nM

Question: With COc1cc(C(=O)N2C[C@H](N)[C@@H]3CC[C@H]2C3)cc2nc(-c3cc4ccc5nc4n3CCCCC[C@@]3(F)C[C@]3(C)C(=O)N[C@@H]5C)n(C)c12 [Example 915, (2~{R},5~{R},7~{R})-14-[5-[(1~{S},4~{R},5~{R})-4-amino-2-azabicyclo[3.2.1]octane-2-carbonyl]-7-methoxy-1-methyl-benzimidazol-2-yl]-7-fluoro-2,5-dimethyl-3,13,19-triazatetracyclo[11.5.2.0^ {5,7}.0^{16,20}]icosa-1(19),14,16(20),17-tetraen-4-one] as the compound, how does the IC50 read?
Answer: 47 nM

Question: With COc1cc(C(=O)N2C[C@H](N)[C@@H]3CC[C@H]2C3)cc2nc(-c3cc4ccc5nc4n3CCCCC[C@]3(F)C[C@@]3(C)C(=O)N[C@@H]5C)n(C)c12 [Example 916, (2~{R},5~{S},7~{S})-14-[5-[(1~{S},4~{R},5~{R})-4-amino-2-azabicyclo[3.2.1]octane-2-carbonyl]-7-methoxy-1-methyl-benzimidazol-2-yl]-7-fluoro-2,5-dimethyl-3,13,19-triazatetracyclo[11.5.2.0^ {5,7}.0^{16,20}]icosa-1(19),14,16(20),17-tetraen-4-one] as the compound, how does the IC50 read?
Answer: 26 nM

Question: COc1cc(C(=O)N2C[C@H](N)[C@@H]3CC[C@H]2C3)cc2nc(-c3cc4ccc5nc4n3CCCCC[C@@H]3C[C@@]3(C)C(=O)N[C@@H]5C)n(C)c12 [Example 917, (2~{R},5~{R},7~{R})-14-[5-[(1~{S),4~{R},5~{R})-4-amino-2-azabicyclo[3.2.1]octane-2-carbonyl]-7-methoxy-1-methyl-benzimidazol-2-yl]-2,5-dimethyl-3,13,19-triazatetracyclo[11.5.2.0^ {5,7}.0^{16,20}]icosa-1(19), 14,16(20),17-tetraen-4-one] was tested. Which IC50 did it give?
Answer: 27 nM

Question: C[C@H]1NC(=O)[C@@H]2C[C@@]2(F)CC[C@@H]2C[C@@H]2Cn2c(-c3nc4cc(C(=O)N5C[C@H](N)[C@@H]6CC[C@H]5C6)cc(F)c4n3C3CC3)cc3ccc1nc32 [Example 918, (3~{S},5~{R},8~{S},10~{S}, 13~{R})-19-[5-[(1~{S), 4~{R},5~{R})-4-amino-2-azabicyclo[3.2.1]octane-2-carbonyl]-1-cyclopropyl-7-fluoro-benzimidazol-2-yl]-8-fluoro-13-methyl-1,12,21-triazapentacyclo[12.5.2.0^ {3,5}.0^{8,10}.0^{17,20}] henicosa-14(21),15, 17(20),18-tetraen-11-one] was tested. Which IC50 did it give?
Answer: 31 nM

Question: For C[C@H]1NC(=O)[C@@H]2C[C@@]2(F)/C=C/CCCn2c(-c3nc4cc(C(=O)N5C[C@H](N)[C@@H]6CC[C@H]5C6)cc(F)c4n3C3CC3)cc3ccc1nc32 [Example 919, (2~{R},5~{S},7~{R},8~{E})-14-[5-[(1~{S},4~{R},5~{R})-4-amino-2-azabicyclo[3.2.1]octane-2-carbonyl]-1-cyclopropyl-7-fluoro-benzimidazol-2-yl]-7-fluoro-2-methyl-3,13,19-triazatetracyclo[11.5.2.0^ {5,7}.0^{16,20}]icosa-1(19),8,14,16(20),17-pentaen-4-one], which IC50 is on record?
Answer: 20 nM

Question: For C[C@H]1NC(=O)[C@@H]2C[C@@]2(F)CCCCCn2c(-c3nc4cc(C(=O)N5C[C@H](N)[C@@H]6CC[C@H]5C6)cc(F)c4n3CC(F)F)cc3ccc1nc32 [Example 920, (2~{R},5~{S},7~{S})-14-[5-[(1~{S),4~{R},5~{R})-4-amino-2-azabicyclo[3.2.1]octane-2-carbonyl]-1-(2,2-difluoroethyl)-7-fluoro-benzimidazol-2-yl]-7-fluoro-2-methyl-3,13,19-triazatetracyclo [11.5.2.0^{5,7}.0^{16,20}] icosa-1(19),14,16(20),17-tetraen-4-one], which IC50 is on record?
Answer: 21 nM

Question: Which IC50 does the source give for C[C@H]1NC(=O)c2ccc(Cl)nc2CCCCCn2c(-c3nc4cc(C(=O)N5C[C@H](N)[C@@H]6CC[C@H]5C6)cc(F)c4n3CC3CC3)cc3ccc1nc32 [Example 921, (2~{R})-17-[5-[(1~{S},4~{R},5~ {R})-4-amino-2-azabicyclo [3.2.1]octane-2-carbonyl]-1-(cyclopropylmethyl)-7-fluoro-benzimidazol-2-yl]-8-chloro-2-methyl-3,9,16,22-tetrazatetracyclo[14.5.2.0^ {5,10}.0^{19,23}]tricosa-1(22),5(10),6,8,17,19(23),20-heptaen-4-one] here?
Answer: 30 nM

Question: Which IC50 does the source give for C[C@H]1NC(=O)[C@@H]2C[C@H]2CCCC(F)(F)Cn2c(-c3nc4cc(C(=O)N5C[C@H](N)[C@@H]6CC[C@H]5C6)cc(F)c4n3CC(F)F)cc3ccc1nc32 [Example 922, (2~{R},5~{R},7~{R})-14-[5-[(1~{S},4~{R},5~{R})-4-amino-2-azabicyclo[3.2.1]octane-2-carbonyl]-1-(2,2-difluoroethyl)-7-fluoro-benzimidazol-2-yl]-11,11-difluoro-2-methyl-3,13,19-triazatetracyclo [11.5.2.0^{5,7}.0^{16,20}] icosa-1(19),14,16(20),17-tetraen-4-one] here?
Answer: 35 nM

Question: Which IC50 does the source give for C[C@H]1NC(=O)[C@@H]2C[C@@]2(F)CCCCCn2c(-c3nc4cc(C(=O)N5C[C@H](N)[C@@H]6CC[C@H]5C6)ccc4n3C3CC3)cc3ccc1nc32 [Example 923, (2~{R},5~{S},7~{S})-14-[5-[(1~{S},4~{R},5~{R})-4-amino-2-azabicyclo[3.2.1]octane-2-carbonyl]-1-cyclopropyl-benzimidazol-2-yl]-7-fluoro-2-methyl-3,13,19-triazatetracyclo [11.5.2.0^{5,7}.0^{16,20}] icosa-1(19),14,16(20), 17-tetraen-4-one] here?
Answer: 24 nM

Question: How did the IC50 turn out when COc1cc(C(=O)N2C[C@H](N)[C@@H]3CC[C@H]2C3)cc2nc(-c3cc4ccc5nc4n3CC(F)(F)CCC[C@@H]3C[C@@]3(C)C(=O)N[C@@H]5C)n(C3CC3)c12 [Example 924, (2~{R},5~{R},7~{R})-14-[5-[(1~{S),4~{R},5~{R})-4-amino-2-azabicyclo[3.2.1]octane-2-carbonyl]-1-cyclopropyl-7-methoxy-benzimidazol-2-yl]-11,11-difluoro-2,5-dimethyl-3,13,19-triazatetracyclo [11.5.2.0^{5,7}.0^{16,20}] icosa-1(19),14,16(20), 17-tetraen-4-one] was run?
Answer: 46 nM

Question: For C[C@H]1NC(=O)c2ccc(Cl)nc2CCCCCn2c(-c3nc4cc(C(=O)N5C[C@H](N)[C@@H]6CC[C@H]5C6)cc(F)c4n3CC(F)F)cc3ccc1nc32 [Example 925, (2~{R})-17-[5-[(1~{S),4~{R},5~ {R})-4-amino-2-azabicyclo[3.2.1]octane-2-carbonyl]-1-(2,2-difluoroethyl)-7-fluoro-benzimidazol-2-yl]-8-chloro-2-methyl-3,9,16,22-tetrazatetracyclo[14.5.2.0^ {5,10}.0^{19,23}]tricosa-1(22),5(10),6,8,17,19(23),20-heptaen-4-one], which IC50 is on record?
Answer: 40 nM

Question: How did the IC50 turn out when COc1cc(C(=O)N2C[C@H](N)[C@@H]3CC[C@H]2C3)cc2nc(-c3cc4ccc5nc4n3CCCCCc3cc(F)c(F)cc3C(=O)N[C@@H]5C)n(C)c12 [Example 927, (2~{R})-17-[5-[(1~{S},4~{R}, 5~{R})-4-amino-2-azabicyclo [3.2.1]octane-2-carbonyl]-7-methoxy-1-methyl-benzimidazol-2-yl]-7,8-difluoro-2-methyl-3,16,22-triazatetracyclo[14.5.2.0^ {5,10}.0^{19,23}]tricosa-1(22),5(10),6,8,17,19(23),20-heptaen-4-one] was run?
Answer: 49 nM

Question: With COc1cc(C(=O)N2C[C@H](N)[C@@H]3CC[C@H]2C3)cc2nc(-c3cc4ccc5nc4n3CCCCCCC(C)(C)C(=O)N[C@@H]5C)c(C)n12 [Example 928, (11~{R})-17-[7-[(1~{S},4~{R}, 5~{R})-4-amino-2-azabicyclo [3.2.1]octane-2-carbonyl]-5-methoxy-3-methyl-imidazo [1,2-a]pyridin-2-yl]-8,8,11-trimethyl-1,10,19-triazatricyclo [10.5.2.0^{15,18}]nonadeca-12(19),13,15(18), 16-tetraen-9-one] as the compound, how does the IC50 read?
Answer: 51 nM

Question: With COc1cc(C(=O)N2C[C@H](N)[C@@H]3CC[C@H]2C3)cc2nc(-c3cc4ccc5nc4n3CCCCC[C@H]3[C@H](C(=O)N[C@@H]5C)C3(F)F)c(C)n12 [Example 929, (2~{R},5~{R},7~{S})-14-[7-[(1~{S},4~{R},5~{R})-4-amino-2-azabicyclo[3.2.1]octane-2-carbonyl]-5-methoxy-3-methyl-imidazo[1,2-a]pyridin-2-yl]-6,6-difluoro-2-methyl-3,13,19-triazatetracyclo[11.5.2.0^ {5,7}.0^{16,20}]icosa-1(19), 14,16(20),17-tetraen-4-one] as the compound, how does the IC50 read?
Answer: 18 nM

Source: patent publication US11976083B2, “Inhibitors of peptidylarginine deiminases” (Gilead Sciences, Inc., priority 2020, dated 2024)
